Test results as given in ChEMBL document CHEMBL5154875, “Discovery of Potent Orally Bioavailable WD Repeat Domain 5 (WDR5) Inhibitors Using a Pharmacophore-Based Optimization” (J Med Chem, 2022).
In brackets after ≈: the same amount, converted by molar mass.

Experiments:
[1] = molecular target: WD repeat-containing protein 5 (Homo sapiens, UniProt P61964); test: Competitive binding affinity to N-terminal 6xHis-SUMO-tagged human WDR5 (22 to 334 residues) expressed in Escherichia coli BL21-Gold (DE3) cells assessed as inhibition constant using 10-mer-Thr-FAM peptide as substrate incubated for 1 hr by Lantha Screen based TR-FRET assay
[2] = tested on: K562; test: Anti-proliferative activity against human K562 cells assessed as inhibition of cell proliferation incubated for 5 days by Cell Titre Glo luminescent assay; type: functional; settings: Homo sapiens, K562, 120 h, time 5 day
[3] = tested on: MV4-11; test: Anti-proliferative activity against human MV4-11 cells assessed as inhibition of cell proliferation incubated for 5 days by Cell Titre Glo luminescent assay; type: functional; settings: Homo sapiens, MV4-11, 120 h, time 5 day
[4] = tested on: MOLM-13; test: Anti-proliferative activity against human MOLM-13 cells assessed as inhibition of cell proliferation incubated for 5 days by Cell Titre Glo luminescent assay; type: functional; settings: Homo sapiens, MOLM-13, 120 h, time 5 day
[5] = Volume of distribution at steady state in CD-1 mouse at 3 mg/kg, iv measured 0.083 to 24 hrs post-treatment by LC-MS/MS analysis; type: ADME, organism-based; settings: in vivo, time 0.083-24 hrs; for Vd: CD-1, mouse, read-out: Vdss
[6] = Kinetic solubility of compound in PBS at pH 7.4 at 100 uM incubated for 1 hr by UV-visible spectroscopy analysis; type: physicochemical; settings: for solubility kinetic at 1 h, 100 µM: PBS, pH 7.4, read-out: Kinetic_solubility
[7] = AUC (0 to infinity) in CD-1 mouse at 3 mg/kg, iv measured 0.083 to 24 hrs post-treatment by LC-MS/MS analysis; type: ADME, organism-based; design: time upper 24 hrs, time lower 0.083 hrs, dose 3 mg/kg, route iv; settings: in vivo; for AUC(0-inf): CD-1, mouse
[8] = Half life in CD-1 mouse at 10 mg/kg, po measured 0.083 to 24 hrs post-treatment by LC-MS/MS analysis; type: ADME, organism-based; settings: in vivo, time 0.083-24 hrs; for half-life: CD-1, mouse; for t1/2: mouse, po, 10 mg/kg
[9] = AUC (0 to infinity) in CD-1 mouse at 10 mg/kg, po measured 0.083 to 24 hrs post-treatment by LC-MS/MS analysis; type: ADME, organism-based; design: dose 10 mg/kg, time upper 24 hrs, time lower 0.083 hrs, route po; settings: in vivo; for AUC(0-inf): CD-1, mouse
[10] = Oral bioavailability in CD-1 mouse at 10 mg/kg measured 0.083 to 24 hrs post-treatment by LC-MS/MS analysis; type: ADME, organism-based; settings: in vivo, time 0.083-24 hrs; for bioavailability: CD-1, mouse
[11] = Cmax in CD-1 mouse at 10 mg/kg, po measured 0.083 to 24 hrs post-treatment by LC-MS/MS analysis; type: ADME, organism-based; design: time lower 0.083 hrs, dose 10 mg/kg, time upper 24 hrs, route po; settings: in vivo
[12] = Clearance in CD-1 mouse at 3 mg/kg, iv measured 0.083 to 24 hrs post-treatment by LC-MS/MS analysis; type: ADME, organism-based; settings: in vivo, time 0.083-24 hrs
[13] = Metabolic stability of compound in rat liver microsome assessed as half life at 1 uM measured upto 45 mins by LCMS analysis; type: ADME, microsomes; settings: microsomes, 0.75 h, 1 µM
[14] = Metabolic stability of compound in rat liver microsome assessed as intrinsic clearance at 1 uM measured upto 45 mins by LCMS analysis; type: ADME, microsomes; settings: microsomes, 0.75 h, 1 µM

| Compound | Ki [1] | GI50 [2] | GI50 [3] | GI50 [4] | other results |
| --- | --- | --- | --- | --- | --- |
| COc1cc(CN2CCc3c(cc(Cn4ccnc4C4CC4)cc3-c3cn(C)nc3C(F)(F)F)C2=O)cc(OC)c1 | 0.028 nM | 8500 nM | 240 nM | 710 nM |  |
| COc1cc(CN2CCc3c(cc(Cn4ccn(C)c4=N)cc3-c3c(C)nn(C)c3C)C2=O)cc(OC)c1 | 0.21 nM | > 30000 nM | 19000 nM | > 30000 nM |  |
| CCn1cc(-c2cc(Cn3ccnc3C)cc3c2CCN([C@@H](c2cc(OC)ccn2)C2CC2)C3=O)c(C(F)(F)F)n1 |  | 2600 nM | 15 nM | 36 nM | Vd [5]: 1.6 L/kg; solubility kinetic at 1 h, 100 µM [6]: 65 µM (≈ 36.7 µg/mL); AUC(0-inf) [7]: 1.24 µg·h/mL; half-life [8]: 1.4 h; AUC(0-inf) [9]: 0.508 µg·h/mL; bioavailability [10]: 12%; Cmax ([11]; CD-1, mouse, read-out: Cmax): 0.652 µg/mL; clearance [12]: 2.46 L/h/kg |
| COc1cc(CN2CCc3c(cc(Cn4ccn(C)c4=N)cc3-c3cc(C)cnc3C)C2=O)cc(OC)c1 | 0.022 nM | > 30000 nM | 640 nM | 2400 nM |  |
| CCn1cc(-c2cc(Cn3ccn(C)c3=N)cc3c2CCN(Cc2cc(OC)cc(OC)c2)C3=O)c(C(F)(F)F)n1 | < 0.02 nM | > 30000 nM | 36 nM | 110 nM |  |
| CCc1ccnc(CN2CCc3c(cc(Cn4ccnc4C)cc3-c3cn(C)nc3C(F)(F)F)C2=O)c1 | < 0.02 nM | 4100 nM | 16 nM | 25 nM |  |
| COc1cc(CN2CCc3c(cc(Cn4ccn(C)c4=N)cc3-c3cn(C)nc3C(F)(F)F)C2=O)cc(OC)c1 | < 0.02 nM | > 30000 nM | 39 nM | 110 nM |  |
| CCn1cc(-c2cc(Cn3ccnc3C)cc3c2CCN([C@H](C)c2cc(OC)ccn2)C3=O)c(C(F)(F)F)n1 | 0.029 nM | 7800 nM | 39 nM | 110 nM |  |
| CCc1nccn1Cc1cc2c(c(-c3cn(C)nc3C(F)(F)F)c1)CCN(Cc1cc(OC)cc(OC)c1)C2=O |  | 7500 nM | 94 nM | 240 nM |  |
| COc1ccnc(CN2CCc3c(cc(Cn4ccnc4C)cc3-c3cn(C)nc3C(F)(F)F)C2=O)c1 | < 0.02 nM | 9500 nM | 24 nM | 39 nM | t1/2 [13]: 3.2 min; CLH [14]: 220 µL/min/mg |
| CCc1ccnc(CN2CCc3c(cc(Cn4ccnc4C)cc3-c3cn(CC)nc3C(F)(F)F)C2=O)c1 | < 0.02 nM | 5600 nM | 24 nM | 43 nM |  |
| CCn1cc(-c2cc(Cn3ccnc3)cc3c2CCN([C@H](c2cc(OC)ccn2)C2CC2)C3=O)c(C(F)(F)F)n1 | < 0.02 nM | 1500 nM | 19 nM | 37 nM | t1/2 [8]: 1.2 h |
| CCn1cc(-c2cc(Cn3ccnc3)cc3c2CCN([C@@H](c2cc(OC)ccn2)C2CC2)C3=O)c(C(F)(F)F)n1 |  | 3700 nM | 13 nM | 27 nM | Vd [5]: 1.6 L/kg; solubility kinetic at 1 h, 100 µM [6]: 60 µM (≈ 33 µg/mL); AUC(0-inf) [7]: 1.95 µg·h/mL; half-life [8]: 1.3 h; AUC(0-inf) [9]: 3.98 µg·h/mL; bioavailability [10]: 61%; Cmax ([11]; CD-1, mouse, read-out: Cmax): 2.08 µg/mL; clearance [12]: 1.56 L/h/kg |
| COc1cc(CN2CCc3c(cc(Cn4ccnc4)cc3-c3cn(C)nc3C(F)(F)F)C2=O)cc(OC)c1 | < 0.02 nM | 9100 nM | 59 nM | 180 nM |  |
| Cc1ccnc(CN2CCc3c(cc(Cn4ccnc4C)cc3-c3cn(C)nc3C(F)(F)F)C2=O)c1 | 0.02 nM | 3600 nM | 23 nM | 33 nM |  |
| COc1cc(CN2CCc3c(cc(Cn4ccn(C)c4=N)cc3-c3cccnc3OC)C2=O)cc(OC)c1 | 0.055 nM | > 30000 nM | 560 nM | 1600 nM |  |
| COc1cc(CN2CCc3c(cc(Cn4ccn(C)c4=N)cc3-c3cn(C)nc3C)C2=O)cc(OC)c1 | 0.023 nM | > 30000 nM | 210 nM | 570 nM |  |
| COc1cc(CN2CCc3c(cc(Cn4ccn(C)c4=N)cc3-c3cccnc3C)C2=O)cc(OC)c1 | 0.036 nM | > 30000 nM | 1200 nM | 3900 nM |  |
| COc1cc(CN2CCc3c(cc(Cn4ccn(C)c4=N)cc3-c3ccc(F)cc3O)C2=O)cc(OC)c1 | 0.035 nM | > 30000 nM | 88 nM | 220 nM |  |

| Compound | Ki [1] | GI50 [2] | GI50 [3] | GI50 [4] | other results |
| --- | --- | --- | --- | --- | --- |
| CCn1cc(-c2cc(Cn3ccnc3C)cc3c2CCN([C@H](c2cc(C)ccn2)C2CC2)C3=O)c(C(F)(F)F)n1 | < 0.02 nM | 2500 nM | 17 nM | 43 nM | Vdss ([5]; mouse, iv, 3 mg/kg): 1.1 L/kg; Kinetic_solubility ([6]; buffer, pH 7.4, 1 h, 100 µM): 66 µM; AUC ([7]; mouse): 2.075 µg·h/mL; t1/2 [8]: 1.2 h; AUC ([9]; mouse): 1 µg·h/mL; F ([10]; mouse, po, 10 mg/kg): 15%; Cmax ([11]; mouse): 1.083 µg/mL |
| COc1cc(CN2CCc3c(cc(Cn4cccn4)cc3-c3cn(C)nc3C(F)(F)F)C2=O)cc(OC)c1 | > 6.7 nM | > 30000 nM | 22000 nM | 20000 nM |  |
| COc1cc(CN2CCc3c(cc(Cn4ccn(C)c4=N)cc3-c3cc(C)ncc3C)C2=O)cc(OC)c1 | < 0.02 nM | > 30000 nM | 200 nM | 560 nM |  |
| COc1cc(CN2CCc3c(cc(Cn4ccn(C)c4=N)cc3-c3conc3C)C2=O)cc(OC)c1 | 0.046 nM | > 30000 nM | 850 nM | 2100 nM |  |
| COc1cc(CN2CCc3c(cc(Cn4ccn(C)c4=N)cc3-c3ccc(F)cc3OC)C2=O)cc(OC)c1 | 0.033 nM | 18000 nM | 210 nM | 420 nM |  |
| COc1cc(CN2CCc3c(cc(Cn4ccn(C)c4=N)cc3-c3ccncc3C)C2=O)cc(OC)c1 | 0.029 nM | > 30000 nM | 230 nM | 640 nM |  |
| COc1cc(CN2CCc3c(cc(Cn4cnnc4)cc3-c3cn(C)nc3C(F)(F)F)C2=O)cc(OC)c1 | 6.5 nM | > 30000 nM | 16000 nM | > 30000 nM |  |
| Cc1cc(CN2CCc3c(cc(Cn4ccnc4C)cc3-c3cn(C)nc3C(F)(F)F)C2=O)ccn1 | 0.064 nM | 13000 nM | 270 nM | 550 nM |  |
| Cc1cccnc1CN1CCc2c(cc(Cn3ccnc3C)cc2-c2cn(C)nc2C(F)(F)F)C1=O | 0.59 nM | 22000 nM | 3000 nM | 4700 nM |  |
| COc1cc(CN2CCc3c(cc(Cn4ccnc4C(F)F)cc3-c3cn(C)nc3C(F)(F)F)C2=O)cc(OC)c1 | > 6.7 nM | > 30000 nM | 12000 nM | 20000 nM |  |
| CCn1cc(-c2cc(Cn3ccnc3C)cc3c2CCN(Cc2cc(OC)ccn2)C3=O)c(C(F)(F)F)n1 | < 0.02 nM | 13000 nM | 34 nM | 59 nM |  |
| COc1cc(CN2CCc3c(cc(Cn4ccnc4C(C)C)cc3-c3cn(C)nc3C(F)(F)F)C2=O)cc(OC)c1 | 3.4 nM | 6000 nM | 4700 nM | 7700 nM |  |
| COc1cc(CN2CCc3c(cc(Cn4ccnc4C)cc3-c3cn(C)nc3C(F)(F)F)C2=O)cc(OC)c1 | < 0.02 nM | 3700 nM | 32 nM | 110 nM |  |
| COc1cc(CN2CCc3c(cc(Cn4ccn(C)c4=N)cc3-c3cc(C)nn3C)C2=O)cc(OC)c1 | 0.025 nM | > 30000 nM | 85 nM | 270 nM |  |
| Cc1nccn1Cc1cc2c(c(-c3cn(C)nc3C(F)(F)F)c1)CCN(Cc1ccccn1)C2=O | 0.23 nM | > 30000 nM | 1500 nM | 3100 nM |  |
| COc1cc(CN2CCc3c(cc(Cn4cccc4)cc3-c3cn(C)nc3C(F)(F)F)C2=O)cc(OC)c1 | > 6.7 nM | > 30000 nM | 15000 nM | 15000 nM |  |
| Cc1cccc(CN2CCc3c(cc(Cn4ccnc4C)cc3-c3cn(C)nc3C(F)(F)F)C2=O)n1 | 0.039 nM | 13000 nM | 170 nM | 330 nM |  |
| CCn1cc(-c2cc(Cn3ccnc3)cc3c2CCN([C@H](C)c2cc(OC)ccn2)C3=O)c(C(F)(F)F)n1 | 0.028 nM | 12000 nM | 39 nM | 100 nM |  |
